The assay addresses T1, Human TRPC6 (Homo sapiens, UniProt Q9Y210).
T1 construct: expressed in transfected cells
T1 sequence (Q9Y210 1-931): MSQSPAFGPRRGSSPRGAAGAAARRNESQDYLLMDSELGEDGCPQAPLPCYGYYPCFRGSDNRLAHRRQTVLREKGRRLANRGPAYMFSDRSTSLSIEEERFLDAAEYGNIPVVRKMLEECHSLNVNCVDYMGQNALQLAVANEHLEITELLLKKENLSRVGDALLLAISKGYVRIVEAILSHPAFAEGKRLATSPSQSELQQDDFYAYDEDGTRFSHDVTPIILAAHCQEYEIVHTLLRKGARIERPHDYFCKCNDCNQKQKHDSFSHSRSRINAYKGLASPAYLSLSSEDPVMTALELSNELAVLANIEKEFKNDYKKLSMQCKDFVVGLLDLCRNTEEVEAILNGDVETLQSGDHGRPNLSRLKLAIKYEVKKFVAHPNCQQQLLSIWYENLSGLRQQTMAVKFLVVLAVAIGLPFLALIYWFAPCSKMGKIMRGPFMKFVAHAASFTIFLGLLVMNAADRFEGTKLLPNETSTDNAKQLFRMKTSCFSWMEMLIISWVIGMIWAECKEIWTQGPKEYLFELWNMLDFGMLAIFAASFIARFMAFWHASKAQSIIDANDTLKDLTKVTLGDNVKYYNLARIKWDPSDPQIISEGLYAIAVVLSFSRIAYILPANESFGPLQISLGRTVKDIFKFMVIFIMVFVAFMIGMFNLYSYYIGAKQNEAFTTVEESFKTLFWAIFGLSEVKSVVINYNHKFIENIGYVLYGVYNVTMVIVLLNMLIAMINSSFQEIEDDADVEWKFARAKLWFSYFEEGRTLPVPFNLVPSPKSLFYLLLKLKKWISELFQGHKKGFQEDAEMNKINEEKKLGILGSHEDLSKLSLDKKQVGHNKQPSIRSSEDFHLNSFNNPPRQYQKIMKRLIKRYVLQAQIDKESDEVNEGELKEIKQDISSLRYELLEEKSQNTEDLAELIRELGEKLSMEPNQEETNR
Briefly: Evaluation of TRPC6 channel inhibitory activity (1), FLIPR Calcium 5 Assay Kit, OAG stimulation (Compound Nos. 1-1293). In kind it is cell-based. Particulars: Human TRPC6 stably-expressing cells, OAG 30 μM, FLIPR Calcium 5 Assay Kit; read-out: Inhibitory activity (pIC50 class) (converted). Summed up: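 Cells stably expressing human TRPC6, plated 24 h before, were loaded 30 min with Calcium 5 dye plus probenecid in HEPES-HBSS. Compound was added 20 min before OAG (30 μM final) and fluorescence tracked on FLIPR. Inhibition normalised to no-compound and no-compound/no-OAG wells; pIC50 from four-parameter fit, reported as +/++/+++ categories.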

Some results are limits rather than exact numbers.

As for `Cc1cc(C(=O)c2cc(F)ccc2-c2ncc(CCN)cn2)cc(N2CCOCC2)n1` [compound 1097, [2-[5-(2-aminoethyl)pyrimidin-2-yl]-5-fluorophenyl]-(2-methyl-6-morpholin-4-ylpyridin-4-yl)methanone], the IC50 is below 10 nM.

As for `NCCc1cnc(-c2ccc(F)cc2C(=O)c2cnn(CC(F)F)c2)nc1` [compound 1098, [2-[5-(2-aminoethyl)pyrimidin-2-yl]-5-fluorophenyl]-[1-(2,2-difluoroethyl)pyrazol-4-yl]methanone], the IC50 was above 1000 nM.

`NCc1cnc(-c2ccc(F)cc2C(=O)c2cnn(CC(F)F)c2)nc1` [compound 1099, [2-[5-(aminomethyl)pyrimidin-2-yl]-5-fluorophenyl]-[1-(2,2-difluoroethyl)pyrazol-4-yl]methanone]: the IC50 is above 1000 nM.

As to `Cn1cc(C(=O)c2cc(F)ccc2-c2ncc(CCN)cn2)cn1` [compound 1100, [2-[5-(2-aminoethyl)pyrimidin-2-yl]-5-fluorophenyl]-(1-methylpyrazol-4-yl)methanone], the IC50 is above 1000 nM.

On to `NCCc1cnc(-c2ccc(F)cc2C(=O)c2cnn(CC3CC3)c2)nc1` [compound 1101, [2-[5-(2-aminoethyl)pyrimidin-2-yl]-5-fluorophenyl]-[1-(cyclopropylmethyl)pyrazol-4-yl]methanone], for which the IC50 is 10 to 1000 nM.

As for `CC(C)n1cc(C(=O)c2cc(F)ccc2-c2ncc(CCN)cn2)cn1` [compound 1102, [2-[5-(2-aminoethyl)pyrimidin-2-yl]-5-fluorophenyl]-(1-propan-2-ylpyrazol-4-yl)methanone], the IC50 was 10 to 1000 nM.

Turning to `Cc1nc(C(=O)c2cc(F)ccc2-c2ncc(CCN)cn2)cc(N2CCOCC2)n1` [compound 1103, [2-[5-(2-aminoethyl)pyrimidin-2-yl]-5-fluorophenyl]-(2-methyl-6-morpholin-4-ylpyrimidin-4-yl)methanone], the IC50 was 10 to 1000 nM.

As for `Cc1nc(C(=O)c2cc(F)ccc2-c2ncc(CN)cn2)cc(N2CCOCC2)n1` [compound 1104, [2-[5-(aminomethyl)pyrimidin-2-yl]-5-fluorophenyl]-(2-methyl-6-morpholin-4-ylpyrimidin-4-yl)methanone], the IC50 is above 1000 nM.

Turning to `Cn1nc(N2CCOCC2)cc1C(=O)c1cc(F)ccc1-c1ncc(CN)cn1` [compound 1105, [2-[5-(aminomethyl)pyrimidin-2-yl]-5-fluorophenyl]-(2-methyl-5-morpholin-4-ylpyrazol-3-yl)methanone], the IC50 was 10 to 1000 nM.

In the case of `Cn1nc(N2CCOCC2)cc1C(=O)c1cc(F)ccc1-c1ccc(CCN)cn1` [compound 1106, [2-[5-(2-aminoethyl)pyridin-2-yl]-5-fluorophenyl]-(2-methyl-5-morpholin-4-ylpyrazol-3-yl)methanone], the IC50 was below 10 nM.

On to `Cn1nc(N2CCOCC2)cc1C(=O)c1cc(F)ccc1-c1ncc(CCN)cn1` [compound 1107, [2-[5-(2-aminoethyl)pyrimidin-2-yl]-5-fluorophenyl]-(2-methyl-5-morpholin-4-ylpyrazol-3-yl)methanone], for which the IC50 is below 10 nM.

With `NCCc1cnc(-c2ccc(F)cc2C(=O)c2cnn(C3CCC3)c2)nc1` [compound 1108, [2-[5-(2-aminoethyl)pyrimidin-2-yl]-5-fluorophenyl]-(1-cyclobutylpyrazol-4-yl)methanone], the IC50 is 10 to 1000 nM.

Regarding `NCc1cnc(-c2ccc(F)cc2C(=O)c2cnn(C3CCC3)c2)nc1` [compound 1109, [2-[5-(aminomethyl)pyrimidin-2-yl]-5-fluorophenyl]-(1-cyclobutylpyrazol-4-yl)methanone], the IC50 is 10 to 1000 nM.

On to `NCCc1ccc(-c2ccc(F)cc2C(=O)c2cnn(C3CCC3)c2)nc1` [compound 1110, [2-[5-(2-aminoethyl)pyridin-2-yl]-5-fluorophenyl]-(1-cyclobutylpyrazol-4-yl)methanone], for which the IC50 is below 10 nM.

For the compound `N#Cc1ccc(-c2ccc(CCN)cc2)c(Cn2cnc(-c3ccccc3)c2)c1` [compound 1111, 4-[4-(2-aminoethyl)phenyl]-3-[(4-phenylimidazol-1-yl)methyl]benzonitrile], the IC50 was 10 to 1000 nM.

`N#Cc1ccc(-c2ccc(CCN)cc2)c(Cn2ccc(-c3ccccc3)n2)c1` [compound 1112, 4-[4-(2-aminoethyl)phenyl]-3-[(3-phenylpyrazol-1-yl)methyl]benzonitrile]: the IC50 was above 1000 nM.

Take `CC(C)NC(=O)c1cn(Cc2cc(C#N)ccc2-c2ccc(CCN)cc2)cn1` [compound 1113, 1-[[2-[4-(2-aminoethyl)phenyl]-5-cyanophenyl]methyl]-N-propan-2-ylimidazole-4-carboxamide]: the IC50 is above 1000 nM.

For `CC(C)CNC(=O)c1cn(Cc2cc(C#N)ccc2-c2ccc(CCN)cc2)cn1` [compound 1114, 1-[[2-[4-(2-aminoethyl)phenyl]-5-cyanophenyl]methyl]-N-(2-methylpropyl)imidazole-4-carboxamide], the IC50 is above 1000 nM.

In the case of `CC(C)CNC(=O)c1cncn1Cc1cc(C#N)ccc1-c1ccc(CCN)cc1` [compound 1115, 3-[[2-[4-(2-aminoethyl)phenyl]-5-cyanophenyl]methyl]-N-(2-methylpropyl)imidazole-4-carboxamide], the IC50 is above 1000 nM.

As for `COCc1cncn1Cc1cc(C#N)ccc1-c1ccc(CCN)cc1` [compound 1116, 4-[4-(2-aminoethyl)phenyl]-3-[[5-(methoxymethyl)imidazol-1-yl]methyl]benzonitrile], the IC50 is above 1000 nM.

In the case of `CC(C)COCc1cncn1Cc1cc(C#N)ccc1-c1ccc(CCN)cc1` [compound 1117, 4-[4-(2-aminoethyl)phenyl]-3-[[5-(2-methylpropoxymethyl)imidazol-1-yl]methyl]benzonitrile], the IC50 was 10 to 1000 nM.

Regarding `COCc1cn(Cc2cc(C#N)ccc2-c2ccc(CCN)cc2)cn1` [compound 1118, 4-[4-(2-aminoethyl)phenyl]-3-[[4-(methoxymethyl)imidazol-1-yl]methyl]benzonitrile], the IC50 is above 1000 nM.

For the compound `CC(C)COCc1cn(Cc2cc(C#N)ccc2-c2ccc(CCN)cc2)cn1` [compound 1119, 4-[4-(2-aminoethyl)phenyl]-3-[[4-(2-methylpropoxymethyl)imidazol-1-yl]methyl]benzonitrile], the IC50 is 10 to 1000 nM.

As for `Cc1nc(-c2ccccc2)cn1Cc1cc(C#N)ccc1-c1ccc(CCN)cc1` [compound 1120, 4-[4-(2-aminoethyl)phenyl]-3-[(2-methyl-4-phenylimidazol-1-yl)methyl]benzonitrile], the IC50 is below 10 nM.

In the case of `CCCc1nccn1Cc1cc(C#N)ccc1-c1ccc(CCN)cc1` [compound 1121, 4-[4-(2-aminoethyl)phenyl]-3-[(2-propylimidazol-1-yl)methyl]benzonitrile], the IC50 is above 1000 nM.

In the case of `N#Cc1ccc(-c2ccc(CCN)cc2)c(Cn2cnc(-n3ccnn3)c2)c1` [compound 1122, 4-[4-(2-aminoethyl)phenyl]-3-[[4-(triazol-1-yl)imidazol-1-yl]methyl]benzonitrile], the IC50 was above 1000 nM.

For `N#Cc1ccc(-c2ccc(CCN)cc2)c(Cn2cnc(-n3cnnn3)c2)c1` [compound 1123, 4-[4-(2-aminoethyl)phenyl]-3-[[4-(tetrazol-1-yl)imidazol-1-yl]methyl]benzonitrile], the IC50 was above 1000 nM.

Take `N#Cc1ccc(-c2ccc(CCN)cc2)c(Cn2cnc(-c3ccc(C(F)(F)F)cc3)c2)c1` [compound 1124, 4-[4-(2-aminoethyl)phenyl]-3-[[4-[4-(trifluoromethyl)phenyl]imidazol-1-yl]methyl]benzonitrile]: the IC50 was above 1000 nM.

As to `Cc1nc(-c2ccc(C(F)(F)F)cc2)cn1Cc1cc(C#N)ccc1-c1ccc(CCN)cc1` [compound 1125, 4-[4-(2-aminoethyl)phenyl]-3-[[2-methyl-4-[4-(trifluoromethyl)phenyl]imidazol-1-yl]methyl]benzonitrile], the IC50 is above 1000 nM.

On to `Cc1nc(COC(C)C)cn1Cc1cc(C#N)ccc1-c1ccc(CCN)cc1` [compound 1126, 4-[4-(2-aminoethyl)phenyl]-3-[[2-methyl-4-(propan-2-yloxymethyl)imidazol-1-yl]methyl]benzonitrile], for which the IC50 was above 1000 nM.

With `N#Cc1ccc(-n2cc(C(O)CN)cn2)c(Cn2cnc(-c3ccccc3)c2)c1` (stereo not shown) [compound 1127, 4-[4-(2-amino-1-hydroxyethyl)pyrazol-1-yl]-3-[(4-phenylimidazol-1 yl)methyl]benzonitrile], the IC50 was above 1000 nM.

Source of the values: patent US20230167073A1 (Teijin Pharma Limited, priority 2020, published 2023).
